Results taken from US20250313569A1, “Pharmaceutical Compounds And Compositions As Modulators Of MAS-Related G-Protein Receptor X2” (Enanta Pharmaceuticals, Inc., priority 2024, published 2025).
pEC50: −log10 of the molar value.

Tests used:
MRGPRX2 LAD2 = biological target: T1, MRGPRX2 LAD2 (Homo sapiens, UniProt Q96LB1); experiment: LAD2 β-hexosaminidase release assay (degranulation), Cortistatin-14 at EC75; type: cell-based; conditions: LAD2 cells; 1 hour compound incubation, Cortistatin-14 at EC75 for 30 minutes; percent degranulation (β-hexosaminidase)
T1 construct: host or cells: LAD2 human mast cells
T1 sequence (Q96LB1 1-330): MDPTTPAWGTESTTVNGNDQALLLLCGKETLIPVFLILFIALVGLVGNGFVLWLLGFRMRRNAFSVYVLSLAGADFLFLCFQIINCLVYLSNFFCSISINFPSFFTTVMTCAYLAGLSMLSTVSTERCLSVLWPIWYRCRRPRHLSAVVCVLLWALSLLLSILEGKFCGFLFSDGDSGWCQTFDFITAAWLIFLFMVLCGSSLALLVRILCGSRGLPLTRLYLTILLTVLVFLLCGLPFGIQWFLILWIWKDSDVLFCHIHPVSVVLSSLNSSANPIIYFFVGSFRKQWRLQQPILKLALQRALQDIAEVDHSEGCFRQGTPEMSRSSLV
Procedure: LAD2 cells obtained from the NIH were cultured in StemPro34 (Gibco) serum-free media supplemented with GlutaMax, penicillin and streptomycin, and 100 ng/mL SCF (Invitrogen). Cells were maintained in a 37° C., 5% CO2 humidified incubator at a concentration of 2-5E5 cells/mL, with hemidepletion once a week.
One day prior to the assay, cells were starved of SCF at a concentration of 2.3E5 cells/mL. On the day of the assay cells were washed twice in Tyrode's Buffer containing 0.04% BSA (assay buffer) and plated in a 96 well-v-bottom assay plate at 20,000 cells per well in 80 μL of assay buffer. Compounds were solubilized at 10 mM DMSO and added as a 10-fold overconcentrated 8-point curve in assay buffer in a volume of 10 μL using the JANUS liquid handler. Assay plates were incubated for 1 hour at 37° C. Cortistatin-14 was diluted in assay buffer to […] its predetermined EC75 and added to the assay plates in a volume of 10 μL. Assay plates were incubated at 37° C. for 30 minutes. After incubation, cells were pelleted and 50 μL of supernatant from each well was transferred to a 96 well flat bottom plate containing 100 μL of substrate solution (3.5 mg/mL p-Nitrophenyl-N-acetyl-β-D-glucosaminide (Sigma Aldrich) in 40 mM Citrate Buffer (Thermo Fisher)). The remaining cell pellets were lysed with 150 μL of 0.1% Triton-X-100 and mixed thoroughly. 50 μL of lysate was transferred to a 96-well flat bottom plate containing 100 μL of substrate solution. Plates with supernatants and lysates were incubated at 37° C. for 90 minutes prior to addition of 50 μL of 400 mM Glycine buffer (pH 10.7). The plates were read on a Perkin Elmer Envision plate reader at an Abs of 405 nanometers. Percent degranulation was calculated and Xlfit was used to calculate an EC50 value for each compound using a 4-parameter logistic curve fitting model. EC50 ranges are reported as follows: A<100 nM; B 0.1-1 μM; C>1 μM.

human MRGPRX2 = biological target: T2, human MRGPRX2 (Homo sapiens, UniProt Q96LB1); experiment: MRGPRX2 IP-1 Gq HTRF assay in HEK293 cells stably expressing human MRGPRX2, Cortistatin-14 at EC75; type: cell-based; conditions: 2 hours at 37° C., cellular IP-1
T2 construct: expressed in transfected cells; host or cells: HEK293
T2 sequence (Q96LB1 1-330): T1 sequence (Q96LB1 1-330)
Procedure: HEK293 cells stably expressing human MRGPRX2 were grown in Dulbecco's Modified Eagle Medium (DMEM) supplemented with 10% fetal bovine serum (FBS), 1% Glutamax, and 1 μg/mL of puromycin. Cells were maintained in a 37° C., 5% CO2 humidified incubator.
Cells were plated in a 384-well assay plate at a density of 20,000 cells per well overnight. Compounds were solubilized at 10 mM in DMSO and added as a 10-point curve using an ECHO acoustic liquid handler. On the day of the assay, Cortistatin-14 was diluted in assay buffer (provided by IP-One-Gq-HTRF kit purchased from Cisbio, 62IPAPEJ) and added to the assay plate at a final concentration corresponding to the predetermined EC75. Plates were incubated at 37° C. for 2 hours prior to addition of HTRF detection reagents per the manufacturer's instructions. The plates were read on a Perkin Elmer Envision plate reader. The HTRF ratio and cellular IP-1 levels were calculated. XLfit was used to calculate an EC50 value for each compound using a 4-parameter logistic curve fitting model. EC50 ranges are reported as follows: A<100 nM; B 0.1-1 μM; C>1 μM.

SMILES | pEC50 (MRGPRX2 LAD2) | pEC50 (human MRGPRX2)
CC(=O)N1C[C@@H](NC(=O)c2cccc(NS(=O)(=O)C(F)(F)F)c2)C[C@@H](Nc2cc(C(F)(F)F)nc3ccc(Cl)cc23)C1 [Example 43] | > 7.00 | 6.00 to 7.00
COC(=O)N1C[C@@H](NC(=O)c2cccc(NS(C)(=O)=O)c2)C[C@@H](Nc2cc(C(F)(F)F)nc3ccc(Cl)cc23)C1 [Example 5] | > 7.00 | > 7.00
CN(C)C(=O)N1C[C@@H](NC(=O)c2cccc(NS(C)(=O)=O)c2)C[C@@H](Nc2cc(C(F)(F)F)nc3ccc(Cl)cc23)C1 [Example 10] | > 7.00 | 6.00 to 7.00
CC(=O)N1C[C@@H](NC(=O)c2cnn(C)c2)C[C@@H](Nc2cc(C(F)(F)F)nc3ccc(Cl)cc23)C1 [Example 30] | > 7.00 | > 7.00
CS(=O)(=O)Nc1cccc(C(=O)N[C@@H]2COC[C@H](Nc3cc(C(F)(F)F)nc4ccc(Cl)cc34)C2)c1 (racemic) [Example 44, N-(cis-5-((6-chloro-2-(trifluoromethyl)quinolin-4-yl)amino)tetrahydro-2H-pyran-3-yl)-3-(methylsulfonamido)benzamide] | > 7.00 | > 7.00
CC(=O)N1C[C@@H](NC(=O)c2cccc(C#N)c2)C[C@@H](Nc2cc(C(F)(F)F)nc3ccc(Cl)cc23)C1 [Example 24] | > 7.00 | > 7.00
CC(=O)N1C[C@@H](NC(=O)c2cccc(C(F)F)c2)C[C@@H](Nc2cc(C(F)(F)F)nc3ccc(Cl)cc23)C1 [Example 42] | > 7.00 | > 7.00
CS(=O)(=O)Nc1cccc(C(=O)N[C@H]2C[C@@H](Nc3cc(C(F)(F)F)nc4ccc(Cl)cc34)CN(C(=O)C(F)(F)F)C2)c1 [Example 8] | > 7.00 | 6.00 to 7.00
CC(=O)N1C[C@@H](NC(=O)c2cnn(C3CC3)c2)C[C@@H](Nc2cc(C(F)(F)F)nc3ccc(Cl)cc23)C1 [Example 32] | 6.00 to 7.00 | 6.00 to 7.00
CC(=O)N1C[C@@H](NC(=O)c2cccc(C(C)(C)O)c2)C[C@@H](Nc2cc(C(F)(F)F)nc3ccc(Cl)cc23)C1 [Example 41] | > 7.00 | 6.00 to 7.00
COc1ccc(C(=O)N[C@H]2C[C@@H](Nc3cc(C(F)(F)F)nc4ccc(Cl)cc34)CN(C(C)=O)C2)cc1 [Example 25] | > 7.00 | > 7.00
CC(=O)N1C[C@@H](NC(=O)c2cnn(CC(F)(F)F)c2)C[C@@H](Nc2cc(C(F)(F)F)nc3ccc(Cl)cc23)C1 [Example 29] | > 7.00 | > 7.00

The remaining lines, values ahead:

pEC50 (MRGPRX2 LAD2) | pEC50 (human MRGPRX2) | SMILES
> 7.00 | 6.00 to 7.00 | CS(=O)(=O)Nc1cccc(C(=O)N[C@H]2C[C@@H](Nc3cc(C(F)(F)F)nc4ccc(Cl)cc34)CN(S(=O)(=O)c3ccccc3)C2)c1 [Example 4]
> 7.00 | 6.00 to 7.00 | CS(=O)(=O)Nc1cccc(C(=O)N[C@H]2C[C@@H](Nc3cc(C(F)(F)F)nc4ccc(Cl)cc34)CN(C(=O)c3ccccc3)C2)c1 [Example 1]
> 7.00 | 6.00 to 7.00 | CS(=O)(=O)Nc1cccc(C(=O)N[C@H]2C[C@@H](Nc3cc(C(F)(F)F)nc4ccc(Cl)cc34)CN(S(C)(=O)=O)C2)c1 [Example 3]
> 7.00 | > 7.00 | CC(=O)N1C[C@@H](NC(=O)c2cccc(NS(C)(=O)=O)c2)C[C@@H](Nc2cc(C(F)(F)F)nc3ccc(Cl)cc23)C1 [Example 2]
6.00 to 7.00 | 6.00 to 7.00 | CNC(=O)N1C[C@@H](NC(=O)c2cccc(NS(C)(=O)=O)c2)C[C@@H](Nc2cc(C(F)(F)F)nc3ccc(Cl)cc23)C1 [Example 9]
